# Results taken from patent US7030134B2, “Pyrazolopyridinyl pyridine and pyrimidine therapeutic compounds” (SmithKline Beecham Corporation, priority 2001, dated 2006).
# pIC50: −log10 of the molar value.
# System: HSV-1
# Test: HSV-1 replication in infected Vero 76 cells, DNA hybridization capture assay
# Type: cell-based, herpes simplex virus 1
# Settings: Human alphaherpesvirus 1; HSV-1 (MOI=0.001) in Vero 76 cells, 40–48 hours incubation, HSV DNA hybridization chemiluminescence readout; read-out: IC50
# Procedure: Vero 76 cells were maintained in MEM with Earle's salts, L-glutamine, 8% FBS (Hyclone, A-1111-L) and 100 units/mL Penicillin-100 μg/mL Streptomycin. For assay conditions, FBS was reduced to 2%. Cells are seeded into 96-well tissue culture plates at a density of 5×10^4 cells/well after being incubated for 45 min at 37° C. in the presence of HSV-1 or HSV-2 (MOI=0.001). Test compounds are added to the wells and the plates are incubated at 37° C. for 40–48 hours. Cell lysates are prepared as follows: media was removed and replaced with 150 μL/well 0.2 N NaOH with 1% Igepal CA 630 or NP-40. Plates were incubated up to 14 days at room temperature in a humidified chamber to prevent evaporation.
# For the detection probe, a gel-purified, digoxigenin-labeled, […] PCR fragment of the HSV UL-15 sequence was utilized. PCR conditions included 0.5 μM primers, 180 μM dTTP, 20 μM dUTP-digoxigenin (Boehringer Mannheim 1558706), 200 μM each of dATP, dCTP, and dGTP, 1×PCR Buffer II (Perkin Elmer), 2.5 mM MgCl2, 0.025 units/μL of AmpliTaq Gold polymerase (Perkin Elmer), and 5 ng of gel-purified HSV DNA per 100 μL. Extension conditions were 10 min at 95° C., followed by 30 cycles of 95° C. for 1 min, 55° C. for 30 sec, and 72° C. for 2 min. The amplification was completed with a 10-min incubation at 72° C. Primers were selected to amplify a 728 bp probe spanning a section of the HSV1 UL 15 open reading frame (nucleotides 249–977). Single-stranded transcripts were purified with Promega M13 Wizard kits. The final product was mixed 1:1 with a mixture of 6 M GuSCN, 100 mM EDTA and 200 μg/mL herring sperm DNA and stored at 4° C.
# The capture DNA plasmid (HSV UL13 region in pUC) was linearized by cutting with Xba I, denatured for 15 min at 95° C. and diluted immediately into Reacti-Bind DNA Coating Solution (Pierce, 17250, diluted 1:1 with TE buffer, pH 8) at 1 ng/μL 75 μL/well were added to Corning (#3922 or 9690) white 96-well plates and incubated at room temperature for at least 4 hrs before washing twice with 300 μL/well 0.2×SSC/0.05% Tween-20 (SSC/T buffer). The plates were then incubated overnight at room temperature with 150 μL/well 0.2 N NaOH, 1% IGEPAL and 10 μg/mL herring sperm DNA.
# Twenty-seven (27) μL of cell lysate was combined with 45 μL of hybridization solution (final concentration:3M GuSCN, 50 mM EDTA, 100 μg/ml salmon sperm DNA, 5× Denhardt's solution, 0.25×APE, and 5 ng of the digoxigenin-labeled detection probe). APE is 1.5 M NH4-acetate, 0.15 M NH4H2 phosphate, and 5 mM EDTA adjusted to pH 6.0. Mineral oil (50 μL) was added to prevent evaporation. The hybridization plates were incubated at 95° C. for 10 minutes to denature the DNA, then incubated at 42° C. overnight. The wells were washed 6× with 300 μL/well SSC/T buffer then incubated with 75 μL/well anti-digoxigenin-HRP-conjugated antibody (Boehringer Mannheim 1207733, 1:5000 in TE) for 30 min at room temperature. The wells were washed 6× with 300 μL/well with PBS/0.05% Tween-20 before 75 μL/well SuperSignal LBA substrate (Pierce) was added. The plates were incubated at room temperature for 30 minutes and chemiluminescence was measured in a Wallac Victor reader.
# The following results were obtained for HSV-1.
row,Compound,pIC50
1,"Fc1ccc(-c2nn3c(NC4CCCC4)c(C(F)(F)F)ccc3c2-c2ccnc(NC3CCCC3)n2)cc1 [Example 2, N-Cyclopentyl-3-[2-(cyclopentylamino)-4-pyrimidinyl]-2-(4-fluorophenyl)-6-(trifluoromethyl)pyrazolo[1,5-a]pyridin-7-amine]",5.48
2,"O=C(O)c1ccc2c(-c3ccnc(NC4CCCC4)n3)c(-c3ccc(F)cc3)nn2c1NC1CCCC1 [Example 4, 7-(Cyclopentylamino)-3-[2-(cyclopentylamino)-4-pyrimidinyl]-2-(4-fluorophenyl)pyrazolo[1,5-a]pyridine-6-carboxylic acid]",6.30
3,"O=C(c1ccc2c(-c3ccnc(NC4CCCC4)n3)c(-c3ccc(F)cc3)nn2c1NC1CCCC1)N1CCCC1 [Example 5, N-Cyclopentyl-3-[2-(cyclopentylamino)-4-pyrimidinyl]-2-(4-fluorophenyl)-6-(1-pyrrolidinylcarbonyl)pyrazolo[1,5-a]pyridin-7-amine]",5.39
4,"O=C(NCCN1CCOCC1)c1ccc2c(-c3ccnc(NC4CCCC4)n3)c(-c3ccc(F)cc3)nn2c1NC1CCCC1 [Example 8, 7-(Cyclopentylamino)-3-[2-(cyclopentylamino)-4-pyrimidinyl]-2-(4-fluorophenyl)-N-[2-(4-morpholinyl)ethyl]pyrazolo[1,5-a]pyridine-6-carboxamide]",5.30
5,"O=C(NCCCn1ccnc1)c1ccc2c(-c3ccnc(NC4CCCC4)n3)c(-c3ccc(F)cc3)nn2c1NC1CCCC1 [Example 9, 7-(Cyclopentylamino)-3-[2-(cyclopentylamino)-4-pyrimidinyl]-2-(4-fluorophenyl)-N-[3-(1H-imidazol-1-yl)propyl]pyrazolo[1,5-a]pyridine-6-carboxamide]",6.30
6,"Fc1ccc(-c2nn3c(Cl)cc(Cl)cc3c2-c2ccnc(NC3CCCC3)n2)cc1 [Example 12, N-Cyclopentyl-4-[5,7-dichloro-2-(4-fluorophenyl)pyrazolo[1,5-a]pyridin-3-yl]-2-pyrimidinamine]",5.15
7,"Fc1ccc(-c2nn3c(NC4CCCC4)cc(Cl)cc3c2-c2ccnc(NC3CCCC3)n2)cc1 [Example 13, N-{4-[5-Chloro-7-(cyclopentylamino)-2-(4-fluorophenyl)pyrazolo[1,5-a]pyridin-3-yl]-2-pyrimidinyl}-N-cyclopentylamine]",6.77
8,"Fc1ccc(-c2nn3c(NC4CCCC4)cc(NC4CCCC4)cc3c2-c2ccnc(NC3CCCC3)n2)cc1 [Example 14, N^5,N^7-Dicyclopentyl-3-[2-(cyclopentylamino)-4-pyrimidinyl]-2-(4-fluorophenyl)pyrazolo[1,5-a]pyridine-5,7-diamine]",6.62
9,"CC(C)Nc1cc(Cl)cc2c(-c3ccnc(NC4CCCC4)n3)c(-c3ccc(F)cc3)nn12 [Example 15, 5-Chloro-3-[2-(cyclopentylamino)-4-pyrimidinyl]-2-(4-fluorophenyl)-N-isopropylpyrazolo[1,5-a]pyridin-7-amine]",5.84
10,"CC(C)Nc1cc(NC(C)C)n2nc(-c3ccc(F)cc3)c(-c3ccnc(NC4CCCC4)n3)c2c1 [Example 16, 3-[2-(Cyclopentylamino)-4-pyrimidinyl]-2-(4-fluorophenyl)-N^5,N^7-diisopropylpyrazolo[1,5-a]pyridine-5,7-diamine]",6.26
11,"COc1ccc(-c2nn3c(NC4CCCC4)cc(Cl)cc3c2-c2ccnc(NC3CCCC3)n2)cc1 [Example 18, N-{4-[5-Chloro-7-(cyclopentylamino)-2-(4-methoxyphenyl)pyrazolo-[1,5-a]pyridin-3-yl]-2-pyrimidinyl}-N-cyclopentylamine]",6.60
12,"Cc1cccc(-c2nn3c(NC4CCCC4)cc(Cl)cc3c2-c2ccnc(NC3CCCC3)n2)c1 [Example 19, 5-Chloro-N-cyclopentyl-3-[2-(cyclopentylamino)pyrimidin-4-yl]-2-(3-methylphenyl)pyrazolo[1,5-a]pyridin-7-amine]",6.70
13,"Cc1cccc(-c2nn3c(NC4CC4)cc(Cl)cc3c2-c2ccnc(NC3CCCC3)n2)c1 [Example 20, 5-Chloro-3-[2-(cyclopentylamino)pyrimidin-4-yl]-N-cyclopropyl-2-(3-methylphenyl)pyrazolo[1,5-a]pyridin-7-amine]",6.30
14,"Cc1cccc(-c2nn3c(NC4CCCC4)cc(Cl)cc3c2-c2ccnc(NC3CC3)n2)c1 [Example 21, 5-Chloro-N-cyclopentyl-3-[2-(cyclopropylamino)pyrimidin-4-yl]-2-(3-methylphenyl)pyrazolo[1,5-a]pyridin-7-amine]",6.22
15,"Fc1ccc(-c2nn3c(NC4CC4)cc(Cl)cc3c2-c2ccnc(NC3CCCC3)n2)cc1 [Example 22, 5-Chloro-3-[2-(cyclopentylamino)-4-pyrimidinyl]-N-cyclopropyl-2-(4-fluorophenyl)pyrazolo[1,5-a]pyridin-7-amine]",6.70
16,"Fc1ccc(-c2nn3c(N4CCCCC4)cc(Cl)cc3c2-c2ccnc(NC3CCCC3)n2)cc1 [Example 24, 4-[5-Chloro-2-(4-fluorophenyl)-7-(1-piperidinyl)pyrazolo[1,5-a]pyridin-3-yl]-N-cyclopentyl-2-pyrimidinamine]",6.92

# Continued by rising pIC50, values first:
row,pIC50,Compound
1,5.20,"CCOC(=O)c1ccc2c(-c3ccnc(NC4CCCC4)n3)c(-c3ccc(F)cc3)nn2c1NC1CCCC1 [Example 3, Ethyl 7-(cyclopentylamino)-3-[2-(cyclopentylamino)-4-pyrimidinyl]-2-(4-fluorophenyl)pyrazolo[1,5-a]pyridine-6-carboxylate]"
2,5.28,"Fc1ccc(-c2nn3c(NC4CCCC4)c(C(F)(F)F)ccc3c2-c2ccnc(N3CCCC3)n2)cc1 [Example 1, N-Cyclopentyl-2-(4-fluorophenyl)-3-[2-(1-pyrrolidinyl)-4-pyrimidinyl)-6-(trifluoromethyl)pyrazolo[1,5-a]pyridin-7-amine]"
3,5.28,"COc1ccc(-c2nn3c(Cl)cc(Cl)cc3c2-c2ccnc(NC3CCCC3)n2)cc1 [Example 17, N-Cyclopentyl-4-[5,7-dichloro-2-(4-methoxyphenyl)pyrazolo[1,5-a]pyridin-3-yl]-2-pyrimidinamine]"
4,5.38,"O=C(NC(CO)CO)c1ccc2c(-c3ccnc(NC4CCCC4)n3)c(-c3ccc(F)cc3)nn2c1NC1CCCC1 [Example 10, 7-(Cyclopentylamino)-3-[2-(cyclopentylamino)-4-pyrimidinyl]-2-(4-fluorophenyl)-N-[2-hydroxy-1-(hydroxymethyl)ethyl]pyrazolo[1,5-a]pyridine-6-carboxamide]"
5,5.40,"CN(C)C(=O)c1ccc2c(-c3ccnc(NC4CCCC4)n3)c(-c3ccc(F)cc3)nn2c1NC1CCCC1 [Example 6, 7-(Cyclopentylamino)-3-[2-(cyclopentylamino)-4-pyrimidinyl]-2-(4-fluorophenyl)-N,N-dimethylpyrazolo[1,5-a]pyridine-6-carboxamide]"
6,6.00,"O=C(NO)c1ccc2c(-c3ccnc(NC4CCCC4)n3)c(-c3ccc(F)cc3)nn2c1NC1CCCC1 [Example 7, 7-(Cyclopentylamino)-3-[2-(cyclopentylamino)-4-pyrimidinyl]-2-(4-fluorophenyl)-N-hydroxypyrazolo[1,5-a]pyridine-6-carboxamide]"
7,6.01,"OCc1ccc2c(-c3ccnc(NC4CCCC4)n3)c(-c3ccc(F)cc3)nn2c1NC1CCCC1 [Example 11, [7-(Cyclopentylamino)-3-[2-(cyclopentylamino)-4-pyrimidinyl]-2-(4-fluorophenyl)pyrazolo[1,5-a]pyridin-6-yl]methanol]"
8,6.30,"CN1CCN(c2cc(Cl)cc3c(-c4ccnc(NC5CCCC5)n4)c(-c4ccc(F)cc4)nn23)CC1 [Example 23, 4-[5-Chloro-2-(4-fluorophenyl)-7-(4-methyl-1-piperazinyl)pyrazolo[1,5-a]pyridin-3-yl]-N-cyclopentyl-2-pyrimidinamine]"
